Entries after “also recorded” stand apart in the source; their conditions may differ.
Key:
[1] = test system: type A GABA channel receptors (GABAa-R); assay: Whole-cell patch-clamp, effect on GABA-induced ionic current; format: cell-based, human; settings: 0.25 μM compound, GABA 10 μM in the recording pipette, whole cell patch-clamp
Procedure: The studies were conducted using an electrophysiological approach. The activity of the cells was recorded using the patch-clamp technique in its so-called whole cell configuration. The mediums used for the recordings have the following composition (in mM): NaCl ([…]), KCl (2), CaCl2 (1), MgCl2 (2), HEPES (10) for the medium bathing the cells and NaCl (132), KCl (2), CaCl2 (1), MgCl2 (2), TEA (15), HEPES (10) for the recording pipette, the pH was adjusted in both cases to 7.4 with NaOH. The GABA 10 μM was added into the recording pipette.
After producing a “gigaseal” (Planar patch clamp) between the cellular membrane and the tip of a pipette with an electrical resistance comprised between 4 and 7 MO, the ionic currents were measured using a patch-clamp amplifier (Axopatch B200, Axon Instruments, CA). The acquisition of the signal (acquisition frequency of 10 kHz) was done using an interface card (Digidata 1322A, Axon Instruments, CA) and the pClamp 8 software (Axons Instruments, CA).
The allopregnanolone and the BR053, BR338, BR297 and BR351 derivatives were solubilized in pure ethanol before being diluted in the medium to the desired concentration. The dilution factor was at least equal to 2×10^4, which makes the final concentration of ethanol in the recording solution remain below […] (a concentration not affecting the activity of the GABAa receptor).
Depending on the experiments, the allopregnanolone or the BR053, BR338, BR297 or BR351 derivatives, at the concentration of 0.25 μM, were either added in the recording pipette at the same time as the GABA, or applied to the cell by perfusion.
The application was done by gravity through a multi-path perfusion system made up of glass tubes each having an inner diameter of 1 mm. The selected path was placed across from the recorded cell at approximately 100 μm. The solution was changed by calibrated rotation of the tubes using a stepping motor thus placing the new selected path across from the cell. Synchronously with that rotation, the solenoid valve controlling the flow of the selected path was also opened and the preceding one closed.

[2] = test system: human neuroblastoma cells; assay: Whole-cell patch-clamp without GABA in the recording pipette (non-GABAergic effects); format: cell-based; settings: GABA not added in the recording pipette
Excerpt: The present Invention relates to derivatives of allopregnanolone or of epipregnanolone that primarily and clearly create a cellular effect that is completely independent of the GABAa receptors. In fact, electrophysiological experiments conducted on human neuroblastoma cells using a Patch-Clamp technique, in a Patch-Clamp whole cell configuration, made it possible to see that when the GABA is not in the pipette, i.e., not introduced, or when the GABAa receptors are not activated, said derivatives were capable of inducing a specific cellular activity.
These experiments were carried out under the same recording conditions as the electrophysiological studies described above (A5), with the exception of the GABA, which was not added into the recording pipette.

Sprague-Dawley rats = assay: Acetone test of thermal allodynia to cold, painful neuropathy caused by vincristine; format: in vivo, rat; settings: rats with vincristine neuropathy, 4 mg/kg i.p. every 2 days for 2 weeks
Excerpt: Adult male Sprague-Dawley rats weighing between 250 and 300 g were used. They came from the company Janvier (le Genest St. Isle, France). The care and handling of the animals were done in accordance with the guidelines from the Council of the European Community (86/609/EC) and in accordance with the ethical rules of the International Association for the Study of Pain. The protocol used to carry out the in vivo studies was subject to examination and authorization granted to Prof. Mensah-Nyagan's team by the Alsatian Department of the Veterinary Public Health Guide for the Care and Use of Laboratory Animals (Approval number 67-186). The rats were housed under standard conditions with a photoperiod of 12 h day/12 h night, with unlimited food and water. The animals spent one acclimatization week before being integrated into the experimental protocols. Each animal was examined daily to detect any signs of deterioration of its health condition, such as dramatic weight loss, a decrease in appetite during chemotherapy and pharmacological treatment.
Vincristine sulfate (VINC), purchased from Sigma-Aldrich (St. Louis, Mo., USA), was dissolved in a physiological saline solution (NaCl 0.9%) at 0.1 mg/ml and stored at 4° C. The saline solution (NaCl 0.9%) is used as excipient. The VINC is injected daily by intraperitoneal injection (i.p.), in 2 cycles of 5 days separated by 2 days off, at a concentration of 0.1 mg/kg/day. The control animals were injected by i.p. (1 ml/kg) with the excipient using a similar protocol.
The allopregnanolone in the derivatives according to the invention (BR053 and BR297) were diluted in a hydroxypropylcellulose (HPC) solution (0.3%) used as excipient. The curative treatment with allopregnanolone, BR053 or BR297 began 3 days after the vincristine cycles. Each of these compounds (allopregnanolone, BR053 or BR297) was administered by the intraperitoneal route at a dose of 4 mg/kg at a rate of one injection every 2 days. Thus, over the total duration of the in vivo experiments (14 days), each animal received 7 injections of excipient, allopregnanolone, BR053 or BR297, based on its group, at a dose of 4 mg/kg. The animals were sacrificed 24 hours after the last behavioral test (28th day) to remove tissues that will be used for later histology and electrophysiology studies.
The thermal nociceptive sensitivity threshold to cold was measured in rats placed in individual Plexiglas boxes (30×30×25 cm) mounted on a raised mesh support so as to allow access to the sole of the animal's foot. […] Six measurements (3 per foot) were performed with a latency of 5 minutes between each stimulation. The average latency for withdrawal of the feet (in seconds) was calculated by averaging 6 measurements at each studied point in time. […]

With `CC(=O)[C@H]1CCC2C3CC[C@H]4C[C@@H](O)CC[C@]4(C)C3CC(=O)[C@@]21C` (stereo partly drawn) [BR053] the “Effect on the type A GABA receptor channel or GABAa-R” value [1] was “negative allosteric action; also recorded: Negative allosteric effect”, the “Induction of cellular activity without GABA (non-GABAergic effect)” value [2] was “capable of inducing cellular activity” and the “Effect on thermal allodynia to cold” value (Sprague-Dawley rats) was “eliminates the symptoms”.
With `C=CCO[C@H]1CC[C@]2(C)C3CC[C@@]4(C)C(CC[C@@H]4C(C)=O)C3CC[C@H]2C1` (stereo partly drawn) [BR297] the “Effect on the type A GABA receptor channel or GABAa-R” value [1] was “only partially mimics the positive allosteric effect; also recorded: Partial positive allosteric effect”, the “Induction of cellular activity without GABA (non-GABAergic effect)” value [2] was “capable of inducing cellular activity” and the “Effect on thermal allodynia to cold” value (Sprague-Dawley rats) was “eliminates the symptoms”.

— patent US20190002492A1, “DERIVATIVES OF ALLOPR[…] OF EPIALLOPR[…] USES THEREOF FOR TREATING A NEUROPATHOLOGICAL CONDITION” (UNIVERSITE DE STRASBOURG, priority 2011, published 2019)
